Reference: patent publication US20090182026A1, “ALPHA 2 ADRENERGIC AGONISTS” (ALLERGAN, INC., priority 2005, published 2009)
“Also recorded” adds a separate entry of the source.

Tests used:
[1] = biological target: T1, alpha2C receptor (Homo sapiens, UniProt P18825); test: RSAT assay, alpha2C receptor; assay type: cell-based; conditions: NIH-3T3 cells, relative to brimonidine, NA = not active at concentrations less than 10 micromolar
T1 construct: expressed in transfected cells; host or cells: NIH-3T3
T1 sequence (P18825 1-462): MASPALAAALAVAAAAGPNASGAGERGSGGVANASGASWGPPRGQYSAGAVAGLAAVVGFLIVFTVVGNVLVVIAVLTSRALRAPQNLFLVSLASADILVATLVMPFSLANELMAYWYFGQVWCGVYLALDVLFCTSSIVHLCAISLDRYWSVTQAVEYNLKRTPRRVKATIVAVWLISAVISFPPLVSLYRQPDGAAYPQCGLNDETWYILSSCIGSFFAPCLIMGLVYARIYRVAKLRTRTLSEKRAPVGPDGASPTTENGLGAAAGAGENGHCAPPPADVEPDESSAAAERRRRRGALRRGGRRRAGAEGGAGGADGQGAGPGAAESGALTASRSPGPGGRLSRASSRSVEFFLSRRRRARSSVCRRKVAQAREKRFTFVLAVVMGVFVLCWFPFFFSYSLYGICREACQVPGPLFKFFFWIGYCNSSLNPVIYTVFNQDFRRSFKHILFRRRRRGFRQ
Description: (§1) The RSAT assay measures a receptor-mediated loss of contact inhibition that results in selective proliferation of receptor-containing cells in a mixed population of confluent cells. The increase in cell number is assessed with an appropriate transfected marker gene such as […], the activity of which can be easily measured in a 96-well format. Receptors that activate the G protein, Gq, elicit this response. Alpha2 receptors, which normally couple to Gi, activate the RSAT response when coexpressed with a hybrid Gq protein that has a Gi receptor recognition domain, called Gq/i5.
(§2) NIH-3T3 cells are plated at a density of 2×10^6 cells in 15 cm dishes and maintained in Dulbecco's modified Eagle's medium supplemented with 10% calf serum. One day later, cells are cotransfected by calcium phosphate precipitation with mammalian expression plasmids encoding p-SV-β-galactosidase (5-10 μg), receptor (1-2 μg) and G protein (1-2 μg). 40 μg salmon sperm DNA may also be included in the transfection mixture. Fresh media is added on the following day and 1-2 days later, cells are harvested and frozen in 50 assay aliquots. Cells are thawed and 100 μl added to 100 μl aliquots of various concentrations of drugs in triplicate in 96-well dishes. Incubations continue 72-96 hr at 37° C. After washing with phosphate-buffered saline, β-galactosidase enzyme activity is determined by adding […] of the chromogenic substrate (consisting of 3.5 mM o-nitrophenyl-β-D-galactopyranoside and 0.5% nonidet P-40 in phosphate buffered saline), incubating overnight at 30° C. and measuring optical density at 420 nm. The absorbance is a measure of enzyme activity, which depends on cell number and reflects a receptor-mediated cell proliferation. The efficacy or intrinsic activity is calculated as a ratio of the maximal effect of the drug to the maximal effect of a standard full agonist for each receptor subtype. Brimonidine, also called UK14304, the chemical structure of which is shown below, is used as the standard agonist for the alpha2A, alpha2B and alpha2C receptors. […]

[2] = biological target: T2, alpha2B receptor (Homo sapiens, UniProt P18089); test: RSAT assay, alpha2B receptor; assay type: cell-based; conditions: NIH-3T3 cells, relative to brimonidine, NA = not active at concentrations less than 10 micromolar
T2 construct: expressed in transfected cells; host or cells: NIH-3T3
T2 sequence (P18089 1-450): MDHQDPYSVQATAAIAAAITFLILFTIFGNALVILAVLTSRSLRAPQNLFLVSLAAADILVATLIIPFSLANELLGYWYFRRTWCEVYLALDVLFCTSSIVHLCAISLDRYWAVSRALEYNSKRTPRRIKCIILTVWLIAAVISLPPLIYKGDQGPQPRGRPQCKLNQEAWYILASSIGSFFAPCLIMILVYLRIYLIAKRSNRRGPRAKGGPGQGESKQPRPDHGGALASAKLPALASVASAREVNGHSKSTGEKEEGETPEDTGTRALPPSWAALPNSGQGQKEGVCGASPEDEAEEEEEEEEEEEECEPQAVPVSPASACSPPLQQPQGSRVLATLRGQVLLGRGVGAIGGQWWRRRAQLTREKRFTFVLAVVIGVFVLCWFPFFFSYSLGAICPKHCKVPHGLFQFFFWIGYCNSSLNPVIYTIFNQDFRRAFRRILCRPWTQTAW
Description: as §1, §2

[3] = biological target: T3, alpha2A receptor (Homo sapiens, UniProt P08913); test: RSAT assay, alpha2A receptor; assay type: cell-based; conditions: NIH-3T3 cells, relative to brimonidine, NA = not active at concentrations less than 10 micromolar
T3 construct: expressed in transfected cells; host or cells: NIH-3T3
T3 sequence (P08913 1-465): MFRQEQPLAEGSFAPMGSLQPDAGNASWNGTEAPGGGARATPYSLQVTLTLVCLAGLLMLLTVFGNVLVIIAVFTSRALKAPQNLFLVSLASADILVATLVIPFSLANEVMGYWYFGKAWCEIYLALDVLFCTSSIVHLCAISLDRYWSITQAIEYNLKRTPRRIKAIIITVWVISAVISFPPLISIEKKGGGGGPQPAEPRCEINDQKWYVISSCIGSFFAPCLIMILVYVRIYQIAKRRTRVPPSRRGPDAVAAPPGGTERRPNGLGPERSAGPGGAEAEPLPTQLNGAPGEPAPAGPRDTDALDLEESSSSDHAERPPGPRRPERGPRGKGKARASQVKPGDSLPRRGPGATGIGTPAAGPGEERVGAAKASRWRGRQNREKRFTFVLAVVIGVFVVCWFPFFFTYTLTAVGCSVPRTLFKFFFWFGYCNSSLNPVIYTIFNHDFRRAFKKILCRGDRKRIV
Description: as §1, §2

[4] = tested on: α1; test: RSAT assay, α1 receptor; assay type: cell-based; conditions: NIH-3T3 cells, ratio of maximal effect to that of standard full agonist, NA = not active at concentrations less than 10 micromolar
Description: as §1
NIH-3T3 cells are plated at a density of 2×10^6 cells in 15 cm dishes and maintained in Dulbecco's modified Eagle's medium supplemented with 10% calf serum. […] After washing with phosphate-buffered saline, β-galactosidase enzyme activity is determined by adding […] of the chromogenic substrate (consisting of 3.5 mM o-nitrophenyl-β-D-galactopyranoside and 0.5% nonidet P-40 in phosphate buffered saline), incubating overnight at 30° C. and measuring optical density at 420 nm. The absorbance is a measure of enzyme activity, which depends on cell number and reflects a receptor-mediated cell proliferation. The efficacy or intrinsic activity is calculated as a ratio of the maximal effect of the drug to the maximal effect of a standard full agonist for each receptor subtype. […]

[5] = tested on: tactile hypersensitivity; test: Mouse model of tactile hypersensitivity (sulprostone); assay type: in vivo, Mice; conditions: for activity in mouse model of tactile hypersensitivity: general statement, no dose
Description: Mice (5-6; 25-35 g) are injected with sulprostone (300 ng/kg intraperitoneal), a prostaglandin receptor agonist that activates EP1 prostaglandin receptors. This chemical stimulus results in sensitivity to light stroking of their flanks with a paintbrush, which is assessed every five minutes from 15 minutes to 50 minutes post-injection. Animals are scored as 0 (no response), 1 (avoidance) or 2 (vigorous avoidance, vocalization) every five minutes and the scores are summed to yield a total hypersensitivity score (maximum=16).
Compounds were tested for their ability to reduce the tactile hypersensitivity score when administered 15 min prior to the sulprostone. […] An oral dose of 300 ug/kg was also active. An ester prodrug, compound 3, was also tested orally.

[6] = tested on: intraocular pressure (IOP); test: IOP model, normotensive rabbits; assay type: in vivo, New Zealand Rabbits; conditions: for lowering of IOP: qualitative statement (FIG. 2); for decrease in IOP: topical, rabbit eye (FIG. 2)
Description: Male New Zealand Rabbits (6-7; 2-3.5 kg) are used to evaluate drug effects on normotensive IOP measurements. The rabbits are carefully handled so as to minimize excitement. Approximately 25 ul of dilute OphtheticR (0.05%) topical anesthesia is administered to each eye. An initial IOP determination is made in both eyes. Rabbits with 3 mmHg or greater difference in IOP between its right and left eyes are replaced at this time.
Immediately following the T=0 reading in both eyes the rabbits are treated with the compound by a topical route. 35 ul of the test solution is instilled onto the cornea of the randomly selected test eye. Pressure readings are taken at various times post-instillation. Animals are kept in their cages with access to food and water between measurements. Pressure readings utilize a Model 30 Classic™ Pneumatonometer to measure intraocular pressure (IOP) non-invasively through applanation tonometry. compound 1 (0.1%) caused a 20% decrease in IOP and its ester, AGN 204216 (0.03%), caused a 30% decrease in IOP (FIG. 2)

[7] = tested on: locomotor activity; test: Sedation model, exploratory locomotor activity, mice; assay type: in vivo
Description: (§3) The utility of alpha2-adrenergic agonists is limited by a range of side effects, particularly sedation and cardiovascular depression. The sedative activity of the compounds is assessed by measuring their ability to reduce the exploratory activity of mice and rats when placed in a dark chamber 30 min following dosing. The animal's activity is determined automatically by placing it in a digicom analyzer chamber (Omnitech Electronic). These chambers have photocells criss-crossing the box that are broken as the animal moves around. The computer analyzes this movement and records total activity over a 5-min time period. […] This represents greater than a 300-fold margin of safety (FIG. 4).

[8] = tested on: locomotor activity; test: Sedation model, exploratory locomotor activity, rats; assay type: in vivo; conditions: for rat locomotor activity: 30 min after dosing (FIG. 3)
Description: as §3

[9] = tested on: Alpha adrenergic; test: Alpha adrenergic activity of prior-application compound (statement); conditions: background statement

OCC1=CCCC(Cc2c[nH]c(=S)[nH]2)C1 (centres unmarked) [drawing 35] was tested, and the “Intrinsic activity α2C” value [1] was 1.10, the “Intrinsic activity α2B” value [2] was 0.98 and the “Intrinsic activity α2A” value [3] was 0.85. The “Intrinsic activity α1” value [4] was 0.93.
For NCC1=CCCC(Cc2c[nH]c(=S)[nH]2)C1 (centres unmarked), the “Intrinsic activity α2C” value [1] was 0.95, the “Intrinsic activity α2B” value [2] was 0.86 and the “Intrinsic activity α2A” value [3] was 0.81.
For Clc1cccc(Cl)c1N=C1NCCN1 [clonidine, reference compound], the “activity in mouse model of tactile hypersensitivity” value [5] was “active”.
With O=C(CC1CCCC1)OCC1=CCCC(Cc2c[nH]c(=S)[nH]2)C1 (centres unmarked) [Compound 3, cyclopentyl-acetic acid 5-(2-thioxo-2,3-dihydro-1H-imidazol-4-ylmethyl)-cyclohex-1-enylmethyl ester] the “effect on tactile hypersensitivity” value ([5]; oral dose of 30 ug/kg) was “full effect”, the “alleviation of tactile hypersensitivity” value ([5]; oral dosing, dose response (FIG. 1)) was “alleviates tactile hypersensitivity; also recorded: very potent at alleviating the tactile sensitivity in a dose-related manner” and the “lowering of IOP” value [6] was “lower rabbit IOP”. For the same compound, the “decrease in IOP” value ([6]; 35 ul of 0.03% solution) was 30%, the sedation ([7]; mice, oral dose of 3 mg/kg) was “did not sedate” and the “margin of safety / therapeutic window” value ([7]; oral, mice or rats (FIG. 4)) was > 300 fold. The sedation ([8]; rats, oral dose of 3 mg/kg) was “did not sedate”.
OCC1=CCC[C@@H](Cc2c[nH]c(=S)[nH]2)C1 was tested, and the “Intrinsic activity α2C” value [1] was 1.1, the “Intrinsic activity α2B” value [2] was 1.0 and the “Intrinsic activity α2A” value [3] was 0.9. The “Intrinsic activity α1” value [4] was 1.1.
With OCC1=CCCC(Cc2c[nH]c(=S)[nH]2)C1 (centres unmarked) [Compound 1, 4-(3-hydroxymethyl-cyclohex-3-enylmethyl)-1,3-dihydro-imidazole-2-thione] the “reduction of tactile hypersensitivity” value ([5]; dosed intraperitoneally 15 min prior to sulprostone, dose response) was “reduced the hypersensitivity in a dose-related manner”, the “effect on tactile hypersensitivity” value ([5]; intraperitoneal, 30 ug/kg) was “partial effect” and the “effect on tactile hypersensitivity” value ([5]; intraperitoneal, 100 ug/kg) was “full effect”. The “total tactile hypersensitivity score” value ([5]; intraperitoneal, 100 ug/kg, maximum=16, sulprostone 12-14, vehicle 4-6) was 5, the “effect on tactile hypersensitivity” value ([5]; oral dose of 300 ug/kg) was “active” and the “lowering of IOP” value [6] was “lower rabbit IOP”. For the same compound, the “decrease in IOP” value ([6]; 35 ul of 0.1% solution) was 20%, the rat locomotor activity ([8]; intraperitoneal doses up to at least 3 mg/kg) was “did not decrease rat locomotor activity” and the rat locomotor activity ([8]; oral doses up to at least 10 mg/kg) was “did not decrease rat locomotor activity”. The “sedation / decrease of locomotor activity” value ([8]; qualitative statement, no dose) was “does not sedate rats” and the “margin of safety (non-sedating dose vs effective dose)” value ([8]; rat locomotor activity vs tactile hypersensitivity doses) was ≥ 30 fold.
For O=c1[nH]cc(CC2CCC=C(CO)C2)[nH]1 (centres unmarked), the Alpha adrenergic activity [9] was “no Alpha adrenergic activity”.
With Brc1c(N=C2NCCN2)ccc2nccnc12 [brimonidine, reference compound] the “activity in mouse model of tactile hypersensitivity” value [5] was “active”.
